Measurements from patent publication US9394329B2, “Glucopyranosyl derivatives and their uses in medicine” (Sunshine Lake Pharma Co., Ltd., priority 2013, dated 2016).

Key:
[1] = target: T1, SGLT-2 (Homo sapiens, UniProt P31639); assay: SGLT-2 activity measurement ([14C]-AMG uptake in CHO cells expressing human SGLT2); assay type: cell-based; settings: CHO cells expressing human SGLT2, 0.5 μm [14C]-AMG, 37° C. for 1 hour
T1 construct: expressed in transfected cells
T1 sequence (P31639 1-672): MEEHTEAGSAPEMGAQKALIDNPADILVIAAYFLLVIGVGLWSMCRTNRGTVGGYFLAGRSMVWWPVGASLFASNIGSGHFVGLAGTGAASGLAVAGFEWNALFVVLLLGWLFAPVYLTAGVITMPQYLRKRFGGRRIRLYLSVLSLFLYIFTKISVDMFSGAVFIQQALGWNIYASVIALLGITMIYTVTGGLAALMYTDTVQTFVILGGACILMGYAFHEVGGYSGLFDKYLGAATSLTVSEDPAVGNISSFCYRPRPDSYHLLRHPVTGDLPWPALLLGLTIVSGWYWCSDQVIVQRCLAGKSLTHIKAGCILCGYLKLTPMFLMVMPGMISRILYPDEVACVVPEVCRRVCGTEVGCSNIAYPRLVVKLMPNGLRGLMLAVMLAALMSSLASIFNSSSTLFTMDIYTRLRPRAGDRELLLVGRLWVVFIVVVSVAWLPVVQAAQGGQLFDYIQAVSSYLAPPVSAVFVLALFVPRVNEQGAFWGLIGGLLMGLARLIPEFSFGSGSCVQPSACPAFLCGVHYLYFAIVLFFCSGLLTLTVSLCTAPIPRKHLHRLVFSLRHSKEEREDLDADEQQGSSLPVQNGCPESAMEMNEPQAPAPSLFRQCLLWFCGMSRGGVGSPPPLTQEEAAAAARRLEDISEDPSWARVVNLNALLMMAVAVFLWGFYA
Source text: (§1) The following methods can be used to determine the inhibitory activity of the compounds described in the invention for SGLT-1 and SGLT-2.
(§2) ^14C-AMG solution was purchased from PerkinElmer, Cat. No. NEZ080001MC.
(§3) α-Methylglucoside was purchased from Sigma, Cat. No. M9376-100G.
(§4) N-methyl-D-glucosamine was purchased from Sigma, Cat. No. M2004-100G.
(§5) Phloridzin was purchased from Sigma, Cat. No. P3449-1G.
(§6) 96-Well plate was purchased from Corning, Cat. No. 3903.
(§7) Mock-transfected FIP-in CHO cells (3×10^4 cells) and expressing human SGLT1/SGLT2 CHO cells were seeded into 96-well plates respectively. The cells were incubated for 12 hours. Each well of the 96-well plates was washed with 150 μL of sodium-free buffer once. To each well was added 50 μL of sodium-containing buffer containing test compounds having different concentrations and […] [^14C]-AMG. The incubation mixture was incubated at 37° C. for 1 hour. To each well was added 150 μL of precooled sodium-free buffer to terminate the reaction. The cell pellet was washed with sodium-free buffer three times and the residual liquid in well was removed. To each well was added 20 μL of precooled 100 mM NaOH. The 96-well plates were vibrated at 900 rpm for 5 minutes. Scintillation fluid (80 μL) was added to each well which was then vibrated at 600 rpm for 5 minutes. The amount of ^14C-AMG was quantitatively detected using liquid scintillation.

[2] = target: T2, SGLT-1 (Homo sapiens, UniProt P13866); assay: SGLT-1 activity measurement ([14C]-AMG uptake in CHO cells expressing human SGLT1); assay type: cell-based; settings: CHO cells expressing human SGLT1, 0.5 μm [14C]-AMG, 37° C. for 1 hour
T2 construct: expressed in transfected cells
T2 sequence (P13866 1-664): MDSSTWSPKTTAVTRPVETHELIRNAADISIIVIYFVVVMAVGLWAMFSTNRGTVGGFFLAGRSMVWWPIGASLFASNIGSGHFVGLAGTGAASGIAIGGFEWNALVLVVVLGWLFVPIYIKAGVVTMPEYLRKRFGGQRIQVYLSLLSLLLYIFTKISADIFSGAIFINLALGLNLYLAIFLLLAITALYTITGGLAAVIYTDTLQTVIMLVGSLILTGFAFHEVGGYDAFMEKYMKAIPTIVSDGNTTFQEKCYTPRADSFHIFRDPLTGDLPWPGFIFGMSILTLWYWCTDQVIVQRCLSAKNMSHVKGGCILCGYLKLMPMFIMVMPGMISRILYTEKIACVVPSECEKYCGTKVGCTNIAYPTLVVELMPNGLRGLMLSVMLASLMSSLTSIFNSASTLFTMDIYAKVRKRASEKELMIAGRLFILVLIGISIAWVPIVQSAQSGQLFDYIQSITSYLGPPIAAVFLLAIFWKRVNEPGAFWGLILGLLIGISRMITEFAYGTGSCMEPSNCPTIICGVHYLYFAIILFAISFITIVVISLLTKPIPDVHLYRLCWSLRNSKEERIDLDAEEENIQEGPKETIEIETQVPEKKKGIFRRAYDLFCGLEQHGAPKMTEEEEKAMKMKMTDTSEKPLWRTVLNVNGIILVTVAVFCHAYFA
Source text: as §1, §2, §3, §4, §5, §6, §7

Row | Compound | IC50 [1] [nM] | IC50 [2] [nM]
1 | CC(O)[C@@]12CO[C@@](c3ccc(Cl)c(Cc4ccc(OCC(F)(F)F)cc4)c3)(O1)[C@H](O)[C@@H](O)[C@@H]2O (stereo partly drawn) [Example 17, (1R,2S,3S,4R,5S)-5-[4-Chloro-3-[[4-(2,2,2-trifluoroethoxy)phenyl]methyl]phenyl]-1-(1-hydroxyethyl)-6,8-dioxabicyclo[3.2.1]octane-2,3,4-triol] | 1.22 | 820
2 | CC(C)(O)[C@@]12CO[C@@](c3ccc(Cl)c(Cc4ccc(OCC(F)(F)F)cc4)c3)(O1)[C@H](O)[C@@H](O)[C@@H]2O [Example 18, (1S,2S,3S,4R,5S)-5-[4-Chloro-3-[[4-(2,2,2-trifluoroethoxyl)phenyl]methyl]phenyl]-1-(1-hydroxy-1-methyl-ethyl)-6,8-dioxabicyclo[3.2.1]octane-2,3,4-triol] | 3.66 | 350
3 | CCOc1ccc(Cc2cc([C@]34OC[C@](C(C)O)(O3)[C@@H](O)[C@H](O)[C@H]4O)ccc2Cl)cc1F (stereo partly drawn) [Example 19, (1R,2S,3S,4R,5S)-5-[4-chloro-3-[(4-ethoxy-3-fluoro-phenyl)methyl]phenyl]-1-(1-hydroxyethyl)-6,8-dioxabicyclo[3.2.1]octane-2,3,4-triol] | 1.27 | 180
4 | CCOc1ccc(Cc2cc([C@]34OC[C@](C(C)(C)O)(O3)[C@@H](O)[C@H](O)[C@H]4O)ccc2Cl)cc1F [Example 20, (1S,2S,3S,4R,5S)-5-[4-Chloro-3-[(4-ethoxy-3-fluoro-phenyl)methyl]phenyl]-1-(1-hydroxy-1-methyl-ethyl)-6,8-dioxabicyclo[3.2.1]octane-2,3,4-triol] | 0.85 | 170
5 | CCOc1ccc(Cc2cc([C@]34OC[C@](C(C)O)(O3)[C@@H](O)[C@H](O)[C@H]4O)ccc2Cl)c(F)c1F (stereo partly drawn) [Example 23, (1R,2S,3S,4R,5S)-5-[4-Chloro-3-[(4-ethoxy-2,3-difluoro-phenyl)methyl]phenyl]-1-(1-hydroxyethyl)-6,8-dioxabicyclo[3.2.1]octane-2,3,4-triol] | 2.28 | 560
6 | CCOc1ccc(Cc2cc([C@]34OC[C@](C(C)O)(O3)[C@H](O)[C@H](O)[C@H]4O)ccc2Cl)cc1 (stereo partly drawn) [Example 28, (1R,2R,3S,4R,5S)-5-[4-Chloro-3-[(4-ethoxyphenyl)methyl]phenyl]-1-(1-hydroxyethyl)-6,8-dioxabicyclo[3.2.1]octane-2,3,4-triol] | 12.6 | 3400

More lines, now with the values ahead:

Row | IC50 [1] [nM] | IC50 [2] [nM] | Compound
7 | 0.81 | 120 | COc1ccc(Cc2cc([C@]34OC[C@](C(C)O)(O3)[C@@H](O)[C@H](O)[C@H]4O)ccc2Cl)c(F)c1F (stereo partly drawn) [Example 21, (1R,2S,3S,4R,5S)-5-[4-Chloro-3-[(2,3-difluoro-4-methoxy-phenyl)methyl]phenyl]-1-(1-hydroxyethyl)-6,8-dioxabicyclo[3.2.1]octane-2,3,4-triol]
8 | 1.84 | 1040 | COc1ccc(Cc2cc([C@]34OC[C@](C(C)(C)O)(O3)[C@@H](O)[C@H](O)[C@H]4O)ccc2Cl)c(F)c1F [Example 22, (1S,2S,3S,4R,5S)-5-[4-Chloro-3-[(2,3-difluoro-4-methoxy-phenyl)methyl]phenyl]-1-(1-hydroxy-1-methyl-ethyl)-6,8-dioxabicyclo[3.2.1]octane-2,3,4-triol]
9 | 3.48 | 5560 | CC(C)(O)[C@@]12CO[C@@](c3ccc(Cl)c(Cc4ccc(OCC(F)F)cc4)c3)(O1)[C@H](O)[C@@H](O)[C@@H]2O [Example 25, (1S,2S,3S,4R,5S)-5-[4-Chloro-3-[[4-(2,2-difluoroethoxyl)phenyl]methyl]phenyl]-1-(1-hydroxy-1-methyl-ethyl)-6,8-dioxabicyclo[3.2.1]octane-2,3,4-triol]
